Patent US6677358B1, “NIDDM regimen” (Novo Nordisk A/S, priority 1997, dated 2004)
Where “and” joins values, the source holds several entries; their conditions need not be identical. Equal values may be shown once. Read-outs that look alike come from different tables or passages of the source.

Tests used:
[1] = test system: NIDDM patients inadequately controlled on metformin alone; conditions: for Change in FPG / Change in HbA1c (%) / Change in C peptide / Change in fasting insulin (mU/l): mean ± SEM; for Change in FPG / Change in HbA1c (%): baseline to end of 3-month maintenance period; for Change in C peptide / Change in fasting insulin (mU/l): baseline to end of maintenance treatment period
NIDDM patients = experiment: Repaglinide 3 times daily before meals (REP3) vs twice daily (REP2), 4-week double-blind study; conditions: for Fasting blood glucose (mean ±SEM) after 4 weeks: doubled after 2 weeks
Protocol: The potential impact of tailoring insulin release to meal in-take was investigated in a study comparing 3 times daily dosing with repaglinide just before meals to the same dosage administered twice daily. Eighteen OHA-naive NIDDM patients entered a 4-week, single centre, double-blind study, and were randomised to either 0.25 mg repaglinide before breakfast, lunch and dinner (REP3), or 0.5 mg before breakfast, placebo at lunch, and 0.25 mg before dinner (REP2). After two weeks the doses were doubled.
After 2 weeks, the doses were doubled to 0.5 mg before each meal (REP3) and 1 mg+0.5 mg (REP2).

[2] = test system: patients with type 2 diabetes; experiment: Flexible meal-related dosing study of repaglinide (mixed vs fixed regimen), open-label parallel group; type: in vivo, human; conditions: for Mean fructosamine: 1 mg preprandially, end of 21 days
Protocol: In a single-centre, randomised, open-label, parallel group comparison study it was investigated whether repaglinide given preprandially will maintain glycaemic control in patients who skip a meal (lunch) or have an extra meal (bedtime snack) [mixed regimen] as compared with those who have three regular meals [fixed regimen].
A total of 25 diet-treated patients with type 2 diabetes were enrolled (18 men and 7 women) and given a fixed 1 mg dose of repaglinide preprandially (therapeutic dose range: 0.5-4 mg). After one week of stabilisation patients were randomised to the mixed or fixed regimen for a period of 21 days if blood glucose was >140 mg/dl.

[3] = Half-life (duration of action) of repaglinide; conditions: in vivo

Question: Which results are given for CN(C)C(=N)N=C(N)N [Metformin, metformin]?
Answer: Change in mean body weight during the study ([1]; in vivo): -0.86 ± 0.51 kg; Frequency of drug-related adverse events ([1]; in vivo): 14.8%; Gastrointestinal side effects ([1]; in vivo): 7.4%; Patients reporting hypoglycemic episodes (number) ([1]; in vivo): none; Change in FPG [1]: -0.25 mmol/L; Change in HbA1c (%) [1]: −0.33%; Change in FPG ([1]; listed as MET): -0.25 mmol/L; Change in HbA1c (%) ([1]; listed as MET): −0.33%; Change in C peptide [1]: 0.02 nmol/L; Change in fasting insulin (mU/l) [1]: 1.05 ± 1.60 mU/l

Question: What does the source list for CCOc1cc(CC(=O)N[C@@H](CC(C)C)c2ccccc2N2CCCCC2)ccc1C(=O)O [Repaglinide, (S)-(+)-2-ethoxy-4-[2-[[3-methyl-1-[2-(1-piperidinyl)phenyl]butyl]amino]-2-oxo-ethyl]benzoic acid]?
Answer: Blood glucose (AUC0-24 h) after 4 weeks (NIDDM patients; REP2 (twice daily)): 8.91 mmol/L; Increase in normed AUC0-24 h for plasma insulin (NIDDM patients; REP2, after 4 weeks): 20%; Fasting blood glucose (mean ±SEM) after 4 weeks (NIDDM patients; REP2: 0.5 mg before breakfast + 0.25 mg before dinner, baseline 11.3±0.73, 11.2): 9.6 mmol/L and 9.6 ± 0.7 mmol/L; HbA1c (±SEM) after 4 weeks (NIDDM patients; REP2, baseline 7.12±0.24, decrease non-significant): 6.8% and 6.84±0.34%; Blood glucose (AUC0-24 h) after 4 weeks (NIDDM patients; REP3 (three times daily before meals), P<0.05 vs REP2): 7.00 mmol/L; Increase in normed AUC0-24 h for plasma insulin (NIDDM patients; REP3, after 4 weeks): 35-40%; Fasting blood glucose (mean ±SEM) after 4 weeks (NIDDM patients; REP3: 0.25 mg, before each of three main meals, baseline 11.1±1.24, 11.2): 8.4 mmol/L and 8.4 ± 1.01 mmol/L; HbA1c (±SEM) after 4 weeks (NIDDM patients; REP3, baseline 7.51±0.78, P=0.004): 6.5% and 6.51±0.64%; Postprandial blood glucose, lower with REP3 than with REP2 (NIDDM patients; after 4 weeks, P<0.05): about 2.5 mmol/l; Normed AUC0-24 h for plasma C-peptide (NIDDM patients; both groups (REP2, REP3), after 4 weeks): increased in both groups; Plasma insulin before the next meal (NIDDM patients; both treatment groups): decreased to pre-treatment levels; Plasma insulin during the night in comparison with pre-treatment levels (NIDDM patients; both treatment groups): no increase; Non-serious adverse events (NIDDM patients; either treatment group): mild hypoglycemic episodes and one case of influenza; Serious adverse events (NIDDM patients; either treatment group): No serious adverse events; Blood glucose AUC over 24 hours, difference between fixed and mixed groups ([2]; 37-point blood glucose profile): not statistically significant; Hypoglycaemic episodes or serious adverse events ([2]; both regimens): no hypoglycaemic episodes or serious adverse events were reported; Mean fructosamine ([2]; fixed regimen (three regular meals), decreased from 3.10, p<0.05): 2.68 mmol/L; Tolerability of dose regimens ([2]; in vivo): well tolerated; Blood glucose levels when lunch was omitted ([2]; mixed regimen): remained stable until next meal; Mean fructosamine ([2]; mixed regimen (skipped lunch or extra bedtime snack), decreased from 3.37, p<0.05): 2.85 mmol/L; Mean fasting blood glucose (FBG) ([2]; value decreased to, both groups (fixed and mixed regimen)): approximately 120 mg/dl; Frequency of drug-related adverse events ([1]; human, in vivo): 25.0%; Gastrointestinal side effects ([1]; human, in vivo): 3.6%; Patients reporting hypoglycemic episodes (%) ([1]; human, in vivo): 17.9%; Patients reporting hypoglycemic episodes (number) ([1]; human, in vivo): 3 patients; Change in mean body weight during the study ([1]; in vivo): +2.98±0.49 kg; Change in FPG [1]: 0.49 mmol/L; Change in HbA1c (%) [1]: −0.38%; Change in FPG ([1]; listed as REP): 0.49 mmol/L; Change in HbA1c (%) ([1]; listed as REP): −0.38%; Change in C peptide [1]: 0.18 nmol/L; Change in fasting insulin (mU/l) [1]: 4.04 ± 1.56 mU/l; T½ (short duration of action) [3]: one
